Active and inactive are the calls of the source. The calls are words filed in the database; no cut-off is given here.
Key:
RAW264.7 [1] = assay: Inhibition of LPS-induced NO production in mouse RAW264.7 cells at 1 uM pre-incubated for 1 hrs followed by LPS stimulation and measured after 24 hrs; type: functional, cell-based; details: time 25.0 hrs
Mus musculus [2] = assay: Antiinflammatory activity in LPS-induced sepsis in C57BL/6J mouse model assessed as reduction in serum Urea nitrogen level at 7 mg/kg,IG administrated for 72 hrs followed by LPS stimulation and measured after 12 hrs; type: functional, organism-based; details: time 84.0 hrs
Mus musculus [3] = assay: Antiinflammatory activity in LPS-induced sepsis in C57BL/6J mouse model assessed as reduction in inflammatory cell infiltration in liver at 7 mg/kg,IG administrated for 72 hrs followed by LPS stimulation and measured after 12 hrs by H and E staining method; type: functional, organism-based; details: time 84.0 hrs
RAW264.7 [4] = assay: Antiinflammatory activity in mouse RAW264.7 cells assessed as reduction in LPS-induced NF-kappaB phosphorylation at 2.5 to 10 uM pre-incubated for 1 hrs followed by LPS stimulation and measured after 24 hrs by immunofluorescence staining assay; type: functional, cell-based; details: dose 2.5-10 µM, time 25.0 hrs
Mus musculus [5] = assay: Antiinflammatory activity in LPS-induced sepsis in C57BL/6J mouse model assessed as reduction in serum AST level at 7 mg/kg,IG administrated for 72 hrs followed by LPS stimulation and measured after 12 hrs; type: functional, organism-based; details: time 84.0 hrs
[6] = Toxicity in LPS-induced sepsis in C57BL/6J mouse model assessed as decrease in ratio of heart weight to body weight at 14 mg/kg,IG administrated for 72 hrs followed by LPS stimulation and measured after 12 hrs; type: organism-based; details: in vivo, po, 84 h
Mus musculus [7] = assay: Antiinflammatory activity in LPS-induced sepsis in C57BL/6J mouse model assessed as reduction in morphological changes in heart at 7 mg/kg,IG administrated for 72 hrs followed by LPS stimulation and measured after 12 hrs by H and E staining method; type: functional, organism-based; details: time 84.0 hrs
Mus musculus [8] = assay: Antiinflammatory activity in LPS-induced sepsis in C57BL/6J mouse model assessed as reduction in serum LDH level at 7 mg/kg,IG administrated for 72 hrs followed by LPS stimulation and measured after 12 hrs; type: functional, organism-based; details: time 84.0 hrs
[9] = Toxicity in LPS-induced sepsis in C57BL/6J mouse model assessed as decrease in ratio of spleen weight to body weight at 7 mg/kg,IG administrated for 72 hrs followed by LPS stimulation and measured after 12 hrs; type: organism-based; details: in vivo, po, 84 h
[10] = Toxicity in LPS-induced sepsis in C57BL/6J mouse model assessed as decrease in ratio of kidney weight to body weight at 7 mg/kg,IG administrated for 72 hrs followed by LPS stimulation and measured after 12 hrs; type: organism-based; details: in vivo, po, 84 h
RAW264.7 [11] = assay: Antiinflammatory activity in mouse RAW264.7 cells assessed as reduction in LPS-induced ERK phosphorylation at 2.5 to 10 uM pre-incubated for 1 hrs followed by LPS stimulation and measured after 24 hrs by western blotting method; type: functional, cell-based; details: dose 2.5-10 µM, time 25.0 hrs, DDE = dose-dependent effect
Mus musculus [12] = assay: Antiinflammatory activity in LPS-induced sepsis in C57BL/6J mouse model assessed as reduction in morphological changes in heart at 14 mg/kg,IG administrated for 72 hrs followed by LPS stimulation and measured after 12 hrs by H and E staining method; type: functional, organism-based; details: time 84.0 hrs
Mus musculus [13] = assay: Antiinflammatory activity in LPS-induced sepsis in C57BL/6J mouse model assessed as reduction in serum HBDH level at 7 mg/kg,IG administrated for 72 hrs followed by LPS stimulation and measured after 12 hrs; type: functional, organism-based; details: time 84.0 hrs
Mus musculus [14] = assay: Antiinflammatory activity in LPS-induced sepsis in C57BL/6J mouse model assessed as reduction in morphological changes in kidney at 7 mg/kg,IG administrated for 72 hrs followed by LPS stimulation and measured after 12 hrs by H and E staining method; type: functional, organism-based; details: time 84.0 hrs
RAW264.7 [15] = assay: Antiinflammatory activity in mouse RAW264.7 cells assessed as reduction in LPS-induced iNOS protein expression at 2.5 to 10 uM pre-incubated for 1 hrs followed by LPS stimulation and measured after 24 hrs by western blotting method; type: functional, cell-based; details: dose 2.5-10 µM, time 25.0 hrs
[16] = Toxicity in LPS-induced sepsis in C57BL/6J mouse model assessed as decrease in ratio of spleen weight to body weight at 14 mg/kg,IG administrated for 72 hrs followed by LPS stimulation and measured after 12 hrs; type: organism-based; details: in vivo, po, 84 h
RAW264.7 [17] = assay: Antiinflammatory activity in mouse RAW264.7 cells assessed as reduction in LPS-induced TNF-alpha mRNA expression at 2.5 to 10 uM pre-incubated for 1 hrs followed by LPS stimulation and measured after 24 hrs by qRT-PCR assay; type: functional, cell-based; details: dose 2.5-10 µM, time 25.0 hrs, DDE = dose-dependent effect
RAW264.7 [18] = assay: Antiinflammatory activity in mouse RAW264.7 cells assessed as inhibition of LPS-induced NO production at 2.5 to 10 uM pre-incubated for 1 hrs followed by LPS stimulation and measured after 24 hrs; type: functional, cell-based; details: dose 2.5-10 µM, time 25.0 hrs, DDE = dose-dependent effect
Mus musculus [19] = assay: Antiinflammatory activity in LPS-induced sepsis in C57BL/6J mouse model assessed as reduction in serum Urea nitrogen level at 14 mg/kg,IG administrated for 72 hrs followed by LPS stimulation and measured after 12 hrs; type: functional, organism-based; details: time 84.0 hrs
Mus musculus [20] = assay: Antiinflammatory activity in LPS-induced sepsis in C57BL/6J mouse model assessed as reduction in serum creatinine level at 7 mg/kg,IG administrated for 72 hrs followed by LPS stimulation and measured after 12 hrs; type: functional, organism-based; details: time 84.0 hrs
RAW264.7 [21] = assay: Antiinflammatory activity in mouse RAW264.7 cells assessed as reduction in LPS-induced COX-2 protein expression at 2.5 to 10 uM pre-incubated for 1 hrs followed by LPS stimulation and measured after 24 hrs by western blotting method; type: functional, cell-based; details: dose 2.5-10 µM, time 25.0 hrs
Mus musculus [22] = assay: Antiinflammatory activity in LPS-induced sepsis in C57BL/6J mouse model assessed as reduction in inflammatory cell infiltration in liver at 14 mg/kg,IG administrated for 72 hrs followed by LPS stimulation and measured after 12 hrs by H and E staining method; type: functional, organism-based; details: time 84.0 hrs
RAW264.7 [23] = assay: Antiinflammatory activity in mouse RAW264.7 cells assessed as reduction in LPS-induced JNK phosphorylation at 2.5 to 10 uM pre-incubated for 1 hrs followed by LPS stimulation and measured after 24 hrs by western blotting method; type: functional, cell-based; details: dose 2.5-10 µM, time 25.0 hrs, DDE = dose-dependent effect
Mus musculus [24] = assay: Antiinflammatory activity in LPS-induced sepsis in C57BL/6J mouse model assessed as reduction in morphological changes in spleen at 7 mg/kg,IG administrated for 72 hrs followed by LPS stimulation and measured after 12 hrs by H and E staining method; type: functional, organism-based; details: time 84.0 hrs
Mus musculus [25] = assay: Antiinflammatory activity in LPS-induced sepsis in C57BL/6J mouse model assessed as reduction in serum LDH level at 14 mg/kg,IG administrated for 72 hrs followed by LPS stimulation and measured after 12 hrs; type: functional, organism-based; details: time 84.0 hrs
[26] = Toxicity in LPS-induced sepsis in C57BL/6J mouse model assessed as decrease in ratio of heart weight to body weight at 7 mg/kg,IG administrated for 72 hrs followed by LPS stimulation and measured after 12 hrs; type: organism-based; details: in vivo, po, 84 h
Mus musculus [27] = assay: Antiinflammatory activity in LPS-induced sepsis in C57BL/6J mouse model assessed as reduction in serum creatinine level at 14 mg/kg,IG administrated for 72 hrs followed by LPS stimulation and measured after 12 hrs; type: functional, organism-based; details: time 84.0 hrs
Mus musculus [28] = assay: Antiinflammatory activity in LPS-induced sepsis in C57BL/6J mouse model assessed as reduction in serum AST level at 14 mg/kg,IG administrated for 72 hrs followed by LPS stimulation and measured after 12 hrs; type: functional, organism-based; details: time 84.0 hrs
RAW264.7 [29] = assay: Inhibition of LPS-induced NO production in mouse RAW264.7 cells at 10 uM pre-incubated for 1 hrs followed by LPS stimulation and measured after 24 hrs; type: functional, cell-based; details: time 25.0 hrs
[30] = Toxicity in LPS-induced sepsis in C57BL/6J mouse model assessed as decrease in ratio of kidney weight to body weight at 14 mg/kg,IG administrated for 72 hrs followed by LPS stimulation and measured after 12 hrs; type: organism-based; details: in vivo, po, 84 h
Mus musculus [31] = assay: Antiinflammatory activity in LPS-induced sepsis in C57BL/6J mouse model assessed as reduction in morphological changes in kidney at 14 mg/kg,IG administrated for 72 hrs followed by LPS stimulation and measured after 12 hrs by H and E staining method; type: functional, organism-based; details: time 84.0 hrs
Mus musculus [32] = assay: Antiinflammatory activity in LPS-induced sepsis in C57BL/6J mouse model assessed as reduction in morphological changes in spleen at 14 mg/kg,IG administrated for 72 hrs followed by LPS stimulation and measured after 12 hrs by H and E staining method; type: functional, organism-based; details: time 84.0 hrs
RAW264.7 [33] = assay: Antiinflammatory activity in mouse RAW264.7 cells assessed as reduction in LPS-induced IL-1beta mRNA expression at 2.5 to 10 uM pre-incubated for 1 hrs followed by LPS stimulation and measured after 24 hrs by qRT-PCR assay; type: functional, cell-based; details: dose 2.5-10 µM, time 25.0 hrs, DDE = dose-dependent effect
RAW264.7 [34] = assay: Antiinflammatory activity in mouse RAW264.7 cells assessed as reduction in LPS-induced p38 phosphorylation at 2.5 to 10 uM pre-incubated for 1 hrs followed by LPS stimulation and measured after 24 hrs by western blotting method; type: functional, cell-based; details: dose 2.5-10 µM, time 25.0 hrs, DDE = dose-dependent effect
Mus musculus [35] = assay: Antiinflammatory activity in LPS-induced sepsis in C57BL/6J mouse model assessed as reduction in serum HBDH level at 14 mg/kg,IG administrated for 72 hrs followed by LPS stimulation and measured after 12 hrs; type: functional, organism-based; details: time 84.0 hrs

## COc1ccccc1C1=NN(c2nc(C)cs2)C(c2cc(OC)c(OC)c(OC)c2)C1 (centres undefined)
RAW264.7 [1]
  inhibition: Active

## Cc1csc(N2N=C(c3ccccc3Br)CC2c2ccc(Br)cc2)n1 (centres undefined)
RAW264.7 [1]
  inhibition: Active

## COc1ccc(C2=NN(c3nc(C)cs3)C(c3ccc(Br)cc3)C2)cc1 (centres undefined)
RAW264.7 [1]
  inhibition: Active

## Cc1ccc(C2CC(c3ccccc3Br)=NN2c2nc(C)cs2)cc1 (centres undefined)
RAW264.7 [1]
  inhibition: Active

## COc1ccccc1C1=NN(c2nc(C)cs2)C(c2ccccc2C)C1 (centres undefined)
RAW264.7 [1]
  inhibition: Active
Mus musculus [2]
  Activity: Active
Mus musculus [3]
  Activity: Active
RAW264.7 [4]
  Activity: Active
Mus musculus [5]
  Activity: Active
[6]
  Activity: Non-Toxic
Mus musculus [7]
  Activity: Active
Mus musculus [8]
  Activity: Active
[9]
  Activity: Non-Toxic
[10]
  Activity: Non-Toxic
RAW264.7 [11]
  Activity: Dde
Mus musculus [12]
  Activity: Active
Mus musculus [13]
  Activity: Active
Mus musculus [14]
  Activity: Active
RAW264.7 [15]
  Activity: Active
[16]
  Activity: Non-Toxic
RAW264.7 [17]
  Activity: Dde
RAW264.7 [18]
  Activity: Dde
Mus musculus [19]
  Activity: Active
Mus musculus [20]
  Activity: Active
RAW264.7 [21]
  Activity: Active
Mus musculus [22]
  Activity: Active
RAW264.7 [23]
  Activity: Dde
Mus musculus [24]
  Activity: Active
Mus musculus [25]
  Activity: Active
[26]
  Activity: Non-Toxic
Mus musculus [27]
  Activity: Active
Mus musculus [28]
  Activity: Active
RAW264.7 [29]
  inhibition: Active
[30]
  Activity: Non-Toxic
Mus musculus [31]
  Activity: Active
Mus musculus [32]
  Activity: Active
RAW264.7 [33]
  Activity: Dde
RAW264.7 [34]
  Activity: Dde
Mus musculus [35]
  Activity: Active

## COc1ccccc1C1=NN(c2nc(C)cs2)C(c2ccc(Br)cc2)C1 (centres undefined)
RAW264.7 [1]
  inhibition: Active

## COc1ccc(C2=NN(c3nc(C)cs3)C(c3cc(OC)c(OC)c(OC)c3)C2)cc1 (centres undefined)
RAW264.7 [1]
  inhibition: Active

## Cc1csc(N2N=C(c3ccc(F)cc3)CC2c2ccc(Br)cc2)n1 (centres undefined)
RAW264.7 [1]
  inhibition: Active

## COc1ccc(C2=NN(c3nc(C)cs3)C(c3ccc(C)cc3)C2)cc1 (centres undefined)
RAW264.7 [1]
  inhibition: Active

## COc1ccccc1C1=NN(c2nc(C)cs2)C(c2ccc(C)cc2)C1 (centres undefined)
RAW264.7 [1]
  inhibition: Active

Reference: ChEMBL document CHEMBL5214912, “Design, synthesis, and SAR study of novel 4,5-dihydropyrazole-Thiazole derivatives with anti-inflammatory activities for the treatment of sepsis” (Eur J Med Chem, 2021)
